In patent US4428938A, “Peptides affecting the immune regulation and a process for their preparation” (Richter Gedeon Vegyeszeti Gyar Rt., priority 1981, dated 1984):
Residues, ends and D or L forms follow the SMILES beside them.

Key:
[1] = tested on: lymphocytes of healthy persons; test: Active E-rosette test, lymphocytes of healthy persons; type: cell-based, human; conditions: for E-rosette forming activity, percentage amount of active lymphocytes: n = 4
Procedure: (§1) The active E-rosette test was carried out according to a modified method of Wybran et al [Wybran et al: New Engl. J. Med. 292, 475 (1975)] by the lymphocites of healthy and autoimmune patients (rheumatoid arthritis and systemic lupus erythematosus). To 50 μl of a lymphocyte cell suspension 10^-3 -10^-11 moles/lit. solutions of the test material were added and the mixture was incubated in an atmosphere containing 5.0% of carbon dioxide, at 37° C. for 60 minutes. Thereafter 50 μlit. of a 1% sheep erythrocite suspension were added and the mixture was centrifuged at 1000 r.p.m. for 10 minutes followed by shaking with a modified Gallenkampf-shaker (shaking time: 30 sec, stroke: 8 cm, shaking frequency: 65/min.). The rosettes were fixed with a 0.1% glutaric aldehyde (50 μlit. for each tube, 3 min.). Lymphocytes bonding more than three sheep erythrocite were counted under a microscope and 4×100 cells were evaluated. The separated lymphocytes contain macrophages and polymorphonuclear cells (up to 10%) as an impurity. The number of the cells forming the rosettes was corrected by this value each case.

[2] = tested on: plaque forming spleen cells (PFC); test: Effect on plaque forming spleen cells (PFC); type: in vivo, H. Wistar rats; conditions: for Ratio of the plaque formation produced by treated and untreated (control) animals: new-born animals
Procedure: (2) The number of the cells producing a specific antibody was determined by the method of Canningham Handbook of Experimental Immunology (editor: D. M. Weir), 2nd Volume, p. 285, Blackwell, Oxford-London (1978). According to this method from the spleen cells of immunized animals, sheep erythrocyte suspension and complement a homogenous suspension was prepared and it was placed into a chamber suitable for forming a single cell layer. Around the spleen cells lytic areolas are formed, the number of which is identical with the number of the cells producing a specific antibody (plaque forming cells, PFC).
The test animals, not later than 12 hour after birth, were given a single i.p. dose of the test material. According to the method (1) three different doses of each substance were tested. On the 7th day after immunization the plaque formation of the spleen cells isolated from the animals was examined.

[3] = tested on: lymphocytes of patients suffering from rheumatoid arthritis; test: Active E-rosette test, lymphocytes of rheumatoid arthritis patients; type: cell-based, human; conditions: for E-rosette forming activity, percentage amount of active lymphocytes: n = 4; for Effect on E-rosette forming activity (in words): 10^-9 moles/lit.
Procedure: as §1

[4] = tested on: antibody production against sheep erythrocyte; test: Effect on antibody production (Ceglowski's method), agglutination titer; type: in vivo, H. Wistar rats
[5] = tested on: antibody production against sheep erythrocyte; test: as above; type: in vivo, H. Wistar rats; remark: listed apart in the source
Procedure: (1) The effect on antibody production was tested according to Ceglowski's method [Ceglowski: Ann. N.Y. Acad. Sci. 249, 343 (1975)]. New-born H. Wistar rats were treated with single 25 μlit. doses of 4×10^-3 -4×10^-7 moles/lit. of the test material (9 animals for each dose) at the latest at the 12th hour after birth. The 14-day animals were then immunized with a sheep erythrocyte suspension administering 0.5 ml. of a 5% sheep erythrocyte suspension each animal intraperitoneally. On the 7th day after immunization the animals were decapitated. The blood of three animals was mixed and from the serum obtained (after centrifuging at 3000 r.p.m. for 10 minutes) the titers for antibodies were determined by the method of Takatsy [Takatsy: Acta Microbiol. Acad. Sci. Hung. 3, 191 (1955)]. The results are expressed in agglutination titers. The titer corresponds to the […] dilution of the serum in which agglutination can be observed.

[6] = tested on: lymphocytes forming the E-rosette; test: E-rosette formation, summary statement; type: cell-based
Procedure: as §1

[7] = single i.p. dose 1.0·10^-4 mmoles
[8] = single i.p. dose 1.0·10^-6 mmoles

Row | Compound | E-rosette forming activity, percentage amount of active lymphocytes ([1]; 10^-3 moles/liter) | E-rosette forming activity, percentage amount of active lymphocytes ([1]; 10^-5 moles/liter) | E-rosette forming activity, percentage amount of active lymphocytes ([1]; 10^-7 moles/liter) | E-rosette forming activity, percentage amount of active lymphocytes ([1]; 10^-9 moles/liter) | E-rosette forming activity, percentage amount of active lymphocytes ([1]; 10^-11 moles/liter) | Ratio of the plaque formation produced by treated and untreated (control) animals [2, 7] | Ratio of the plaque formation produced by treated and untreated (control) animals [2, 8] | E-rosette forming activity, percentage amount of active lymphocytes ([3]; 10^-3 moles/liter) | E-rosette forming activity, percentage amount of active lymphocytes ([3]; 10^-5 moles/liter) | E-rosette forming activity, percentage amount of active lymphocytes ([3]; 10^-7 moles/liter) | Effect on E-rosette forming activity (in words) [3] | E-rosette forming activity, percentage amount of active lymphocytes ([3]; 10^-9 moles/liter) | E-rosette forming activity, percentage amount of active lymphocytes ([3]; 10^-11 moles/liter) | also measured
1 | CC(C)[C@H](NC(=O)[C@H](CC(=O)O)NC(=O)[C@H](CCCCN)NC(=O)[C@@H](N)CCCNC(=N)N)C(N)=O [Arg--Lys--Asp--Val--NH2, Arg-Lys-Asp-Val-NH2] (H-RKDV-NH2) | 29.0% | 33.8% | 35.1% | 26.6% | 38.1% | 0.3 | 0.52 | 31.5% | 29.8% | 26.9% | significantly stimulated | 34.8% | 28.2% | Effect on E-rosette forming activity (in words) ([1]; 10^-11 moles/lit.): stimulating effect; In vivo effect on plaque forming spleen cells (in words) ([2]; in lower doses): about two-times increase; Ratio of the plaque formation produced by treated and untreated (control) animals ([2]; single i.p. dose 1.0·10^-8 mmoles): 2.7; In vivo effect on the antibody production (in words) ([4]; 4.10^-8 moles/lit.): significant stimulating activity; Antibody production, agglutination titer (X ± S.D.) ([4]; single 25 μlit. dose of 4·10^-8 moles/liter to new-born rats): 6.8 ± 0.8; Antibody production, agglutination titer (X ± S.D.) ([5]; single 25 μlit. dose of 4·10^-4 moles/liter to new-born rats): 5.2 ± 2.2; Antibody production, agglutination titer (X ± S.D.) ([5]; single 25 μlit. dose of 4·10^-6 moles/liter to new-born rats): 6.2 ± 2.0
2 | CC(C)[C@H](NC(=O)[C@H](CC(=O)O)NC(=O)[C@H](CCCCN)NC(=O)[C@@H](N)CCCNC(=N)N)C(=O)O [Arg--Lys--Asp--Val, Arg-Lys-Asp-Val] (H-RKDV-OH) | 41.3% | 39.1% | 38.5% | 43.0% | 33.7% |  |  | 36.2% | 31.5% | 34.4% | significantly stimulated | 36.8% | 32.6% | Activity: increases the number of the lymphocytes forming the E-rosette [6]: active; Effect on E-rosette forming activity (in words) ([1]; 10^-9 moles/lit.): significant stimulating effect; Ratio of the plaque formation produced by treated and untreated (control) animals ([2]; single i.p. dose 2.5·10^-3 mmoles): 0.34; Ratio of the plaque formation produced by treated and untreated (control) animals ([2]; single i.p. dose 2.5·10^-4 mmoles): 0.8
3 | CC(C)[C@H](NC(=O)[C@H](CC(=O)O)NC(=O)[C@H](CCCCN)NC(=O)[C@H](C)N)C(=O)O [Ala--Lys--Asp--Val, Ala-Lys-Asp-Val] (H-AKDV-OH) | 43.4% | 34.9% | 47.5% | 39.1% | 36.2% | 0.04 | 0.01 | 25.3% | 22.8% | 22.5% |  | 23.9% | 20.3% | Effect on E-rosette forming activity (in words) ([1]; 10^-7 moles/lit.): significant stimulating effect; In vivo effect on plaque forming spleen cells (in words) ([2]; in all tested doses): significant inhibiting activity
